# Measurements as given in patent US7488577B2, “Method for measuring DNA polymerization and applications of the method” (Cavidi Tech AB, priority 2001, dated 2009).
# Like-named read-outs stand apart in the source and are kept apart here.
# Tests used:
# [1] = system: T69S→SS/L210W/T215Y HIV-1 mutant RT; assay: Inhibition of second strand synthesis on variable DNA template, standard reaction solution versus reaction solution with ATP; assay type: biochemical; conditions: 4 pg/well RT, 19 hours
# Description: The procedure for production of recombinant HIV-1 RTs with AZT specific mutations were similar but the mutations were introduced into the RT-coding region from the HXB2-D isolate.
# The DNA polymerase γ and Retro DNA polymerase reaction mixture was reinforced with 3.2 mM ATP and pH was adjusted to 7.1.
# The duration of the polymerization reactions was 19 hours. The RT activities obtained were recalculated into % of the activity of the same RT incubated in absence of inhibitor.
# Symbols: HIV-1 wild type RT in standard DNA polymerase reaction solution (◯). HIV-1 wild type RT in DNA polymerase reaction solution with ATP (●), T69S→SS/L210W/T215Y HIV-1 mutant RT in standard DNA polymerase reaction solution (⋄),
# T69S→SS/L210W/T215Y HIV-1 mutant RT in DNA polymerase reaction solution with ATP(♦).
# [2] = target: T1, recombinant HIV 1 RT wild type (Human immunodeficiency virus type 1 group M subtype B, UniProt P03366); assay: biochemical; set-up: The mutated and native forms of RT were isolated as previously described; made in house; conditions: IC50 on template prA, RT type wt, first strand synthesis, 2 hours
# Description: In short, poly(rA) covalently bound to the wells of a 96 well microtiter plate serves as template for the incorporation of 5-bromodeoxyuridine 5′-triphosphate (BrdUTP) during the reverse transcription step at 33° C. The amount of bromodeoxyuridine monophosphate (BrdUMP) incorporated into DNA, is detected with an alkaline phosphatase (Ap) conjugated anti-BrdU monoclonal antibody. An Ap substrate, 4-methylumbelliferyl phosphate, is finally used for fluorimetric detection.
# (§1) The effects of three non-nucleoside inhibitors on indicated recombinant HIV 1 RT were determined according to “Protocol for determination of inhibition of second strand synthesis on variable DNA template” using DNA polymerase γ and Retro DNA polymerase base buffer and “Protocol for determination of inhibition of reverse transcription ” respectively.
# [3] = target: T1, recombinant HIV 1 RT wild type; assay: biochemical
# From the text: The DNA-polymerase assay is based on a short primer with a specific sequence that is covalently bound to the wells of a 96 well microtiter plate. The reaction mixture contains a single stranded deoxynucleotide template with a part of the sequence complementary to the primer and the four deoxynucleoside triphosphates. Thymidine triphosphate is, however, replaced by 5-bromodeoxyuridine 5′-triphosphate (BrdUTP). The amount of bromodeoxyuridine monophosphate (BrdUMP) incorporated into DNA during the polymerase reaction, is detected with an alkaline phosphatase (Ap) conjugated anti-BrdU monoclonal antibody. An Ap substrate, 4-methylumbelliferyl phosphate, is used for fluorimetric product detection.
# The inhibition studies were performed in a modified DNA polymerase assay. The drugs were serially diluted in five steps and 25 μl aliquots were transferred to each well in the microtiter plate, mixed with 100 μl DNA polymerase reaction mixture and the enzyme reaction was initiated by addition of 25 μl enzyme dilution. […] The polymerase reaction was allowed to proceed over-night (16-24 hours at 33° C.). Thereafter the reaction was terminated by a wash of the plate.
# The polymerase activity at each inhibitor concentration was recalculated into % of the activity of a control in absence of inhibitor. The results are depicted in FIG. 3.
# as §1
# [4] = target: T2, recombinant DNA polymerase III (Staphylococcus aureus, UniProt P0C1P9); assay: Inhibition of DNA polymerase III with TMAU on different templates; assay type: biochemical; conditions: templates (CTGA)6-A12 or (CTG)6-A3; 1.25 ng/well enzyme, one hour, GTP […]
# T2 construct: made in house
# T2 sequence (P0C1P9 1-1435): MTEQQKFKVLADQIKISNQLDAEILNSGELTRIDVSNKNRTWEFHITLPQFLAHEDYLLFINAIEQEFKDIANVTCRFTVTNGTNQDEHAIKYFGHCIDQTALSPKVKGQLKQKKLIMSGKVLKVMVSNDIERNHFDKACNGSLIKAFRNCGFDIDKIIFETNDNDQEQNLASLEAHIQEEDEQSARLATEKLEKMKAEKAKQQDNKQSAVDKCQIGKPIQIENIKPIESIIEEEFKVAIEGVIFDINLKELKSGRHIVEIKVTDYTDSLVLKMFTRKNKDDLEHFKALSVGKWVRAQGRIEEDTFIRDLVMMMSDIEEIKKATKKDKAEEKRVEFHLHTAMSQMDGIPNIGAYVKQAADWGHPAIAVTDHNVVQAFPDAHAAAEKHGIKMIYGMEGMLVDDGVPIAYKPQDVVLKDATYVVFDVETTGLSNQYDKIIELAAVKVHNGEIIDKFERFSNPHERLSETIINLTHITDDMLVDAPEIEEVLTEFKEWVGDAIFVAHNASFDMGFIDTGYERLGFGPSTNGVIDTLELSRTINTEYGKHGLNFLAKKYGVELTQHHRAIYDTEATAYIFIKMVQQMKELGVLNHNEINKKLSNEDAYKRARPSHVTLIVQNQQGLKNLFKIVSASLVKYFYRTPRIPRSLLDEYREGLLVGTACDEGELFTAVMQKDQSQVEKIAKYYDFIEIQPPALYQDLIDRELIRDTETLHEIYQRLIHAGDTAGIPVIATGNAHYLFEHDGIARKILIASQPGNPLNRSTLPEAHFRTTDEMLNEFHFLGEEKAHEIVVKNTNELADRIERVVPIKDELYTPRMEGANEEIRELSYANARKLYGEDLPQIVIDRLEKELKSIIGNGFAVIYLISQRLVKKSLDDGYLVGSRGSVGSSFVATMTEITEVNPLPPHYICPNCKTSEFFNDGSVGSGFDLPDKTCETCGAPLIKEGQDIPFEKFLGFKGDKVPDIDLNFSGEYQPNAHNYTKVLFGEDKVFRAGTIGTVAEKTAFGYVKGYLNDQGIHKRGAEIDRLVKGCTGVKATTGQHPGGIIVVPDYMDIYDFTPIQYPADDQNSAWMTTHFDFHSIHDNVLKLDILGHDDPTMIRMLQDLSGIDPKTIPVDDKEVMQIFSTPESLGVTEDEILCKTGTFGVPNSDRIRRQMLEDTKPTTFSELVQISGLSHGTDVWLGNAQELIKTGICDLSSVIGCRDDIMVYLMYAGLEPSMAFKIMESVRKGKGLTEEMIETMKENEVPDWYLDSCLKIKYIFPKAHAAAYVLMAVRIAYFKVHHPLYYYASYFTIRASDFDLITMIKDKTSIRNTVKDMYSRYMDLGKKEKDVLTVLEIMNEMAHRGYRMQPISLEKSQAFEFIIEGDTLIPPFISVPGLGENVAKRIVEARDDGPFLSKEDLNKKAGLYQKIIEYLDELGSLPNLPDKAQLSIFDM
# Description: DNA polymerase I (E. coli) was purchased from Amersham Bioscience. Recombinant DNA polymerase III from Staphylococus aureus was produced as described (Brown et al 1998). Mammalian DNA polymerase α (calf thymus) and β (human) were purchased from CHIMERx (Milwaukee). DNA polymerase γ was purified from beef heart as described (Pileur et al 2000).
# (2-(N-Morpholino)ethanesulfonic acid) (MES) 40 mM pH 6.8, Potassium acetate (KAc) 40 mM, MgCl2 10 mM, spermine 2 mM, polyoxyethylenesorbitan monolaureate (Tween 20) 0.5%(v/v), EDTA 0.1 mM, dithiothreitol 1 mM and bovine serum albumin (BSA) 50 μg/ml.
# 6-anilinouracils are selective inhibitors of DNA polymerase III from gram-positive bacteria. […] The drug TMAU can be regarded as an analogue to […]. […]
smiles,measurement,setting,value
C[C@@H](Cn1cnc2c(N)ncnc21)OCP(=O)(O)OP(=O)(O)OP(=O)(O)O,Increase of the difference in drug susceptibility between wild type and mutant RT,[1],approximately 10 fold
O=C(O)P(=O)(O)O [Foscarnet],IC50,[2]; RT amount 20 fg,600 nM
same,IC50,[2]; RT amount 100 fg,700 nM
same,IC50,[3],500 nM
"O=c1cc(Nc2ccc3c(c2)CCC3)[nH]c(=O)[nH]1 [TMAU, 6-([3,4-trimethylene]anilino)uracil]",Inhibitory capacity towards DNA polymerase III,[4],varying inhibitory capacity depending on the sequence of the template used
"Nc1ncnc2c1ncn2C1CCC(COP(=O)(O)OP(=O)(O)OP(=O)(O)O)O1 (stereo not shown) [ddATP, 2′3′ dideoxyadenosine triphosphate]",IC50,[3],80 nM
"Nc1ccn(C2CCC(COP(=O)(O)OP(=O)(O)OP(=O)(O)O)O2)c(=O)n1 (stereo not shown) [ddCTP, 2′3′ dideoxy cytidine triphosphate]",IC50,[3],20 nM
